Measured values as given in the NIST ThermoML archive (doi:10.1016/j.jct.2016.06.034).
Numbers after ± are expanded uncertainties.

Test: mn = molality of the nth substance listed, in mol/kg
Conditions: 84.5 kPa, Liquid; for electrical conductivity: Alternating current cell with electrodes; for speed of sound: Frequency=3 MHz, Sing-around technique in a fixed-path interferometer; for mass density: Vibrating tube method

## CCCCCCCCCCn1cc[n+](C)c1.[Br-] [1-decyl-3-methylimidazolium bromide] + O
298.15 K, m1 = 0.03397
  electrical conductivity: 0.283 ± 0.0046 S/m
298.15 K, m1 = 0.03638
  electrical conductivity: 0.3 ± 0.0048 S/m
298.15 K, m1 = 0.03875
  electrical conductivity: 0.317 ± 0.0049 S/m
298.15 K, m1 = 0.04039
  electrical conductivity: 0.327 ± 0.0048 S/m
298.15 K, m1 = 0.04217
  electrical conductivity: 0.338 ± 0.0047 S/m
298.15 K, m1 = 0.04391
  electrical conductivity: 0.346 ± 0.0045 S/m
298.15 K, m1 = 0.04608
  electrical conductivity: 0.354 ± 0.0045 S/m
298.15 K, m1 = 0.04825
  electrical conductivity: 0.361 ± 0.0045 S/m
298.15 K, m1 = 0.05051
  electrical conductivity: 0.368 ± 0.0046 S/m
298.15 K, m1 = 0.0526
  electrical conductivity: 0.373 ± 0.0046 S/m
298.15 K, m1 = 0.05487
  electrical conductivity: 0.379 ± 0.0047 S/m
298.15 K, m1 = 0.05749
  electrical conductivity: 0.386 ± 0.0048 S/m
298.15 K, m1 = 0.06017
  electrical conductivity: 0.392 ± 0.0048 S/m
298.15 K, m1 = 0.06271
  electrical conductivity: 0.398 ± 0.0049 S/m
298.15 K, m1 = 0.0095
  speed of sound: 1498.6 ± 1.2 m/s
  mass density: 997.416 ± 0.11 kg/m3
298.15 K, m1 = 0.01379
  speed of sound: 1499.5 ± 1.2 m/s
  mass density: 997.587 ± 0.11 kg/m3
298.15 K, m1 = 0.01652
  speed of sound: 1500 ± 1.2 m/s
  mass density: 997.693 ± 0.11 kg/m3
298.15 K, m1 = 0.02179
  speed of sound: 1500.9 ± 1.2 m/s
  mass density: 997.899 ± 0.11 kg/m3
298.15 K, m1 = 0.02615
  speed of sound: 1501.7 ± 1.2 m/s
  mass density: 998.07 ± 0.11 kg/m3
298.15 K, m1 = 0.03106
  speed of sound: 1502.5 ± 1.2 m/s
  mass density: 998.263 ± 0.11 kg/m3
298.15 K, m1 = 0.03338
  speed of sound: 1502.9 ± 1.2 m/s
  mass density: 998.353 ± 0.11 kg/m3
298.15 K, m1 = 0.03819
  speed of sound: 1503.7 ± 1.2 m/s
  mass density: 998.54 ± 0.11 kg/m3
298.15 K, m1 = 0.0406
  speed of sound: 1503.9 ± 1.2 m/s
  mass density: 998.636 ± 0.11 kg/m3
298.15 K, m1 = 0.04332
  speed of sound: 1504.2 ± 1.2 m/s
  mass density: 998.732 ± 0.11 kg/m3
298.15 K, m1 = 0.04614
  speed of sound: 1504.4 ± 1.2 m/s
  mass density: 998.829 ± 0.11 kg/m3
298.15 K, m1 = 0.05515
  speed of sound: 1504.7 ± 1.2 m/s
  mass density: 999.136 ± 0.11 kg/m3
298.15 K, m1 = 0.06396
  speed of sound: 1504.8 ± 1.2 m/s
  mass density: 999.429 ± 0.11 kg/m3
298.15 K, m1 = 0.07815
  speed of sound: 1504.9 ± 1.2 m/s
  mass density: 999.895 ± 0.11 kg/m3
298.15 K, m1 = 0.122
  speed of sound: 1505.1 ± 1.2 m/s
  mass density: 1001.31 ± 0.11 kg/m3
298.15 K, m1 = 0.1726
  speed of sound: 1505.4 ± 1.2 m/s
  mass density: 1002.91 ± 0.11 kg/m3
298.15 K, m1 = 0.2247
  speed of sound: 1505.7 ± 1.2 m/s
  mass density: 1004.51 ± 0.11 kg/m3
298.15 K, m1 = 0.2539
  speed of sound: 1505.9 ± 1.2 m/s
  mass density: 1005.39 ± 0.11 kg/m3
303.15 K, m1 = 1e-05
  electrical conductivity: 0.00018 S/m
303.15 K, m1 = 3e-05
  electrical conductivity: 0.000342 S/m
303.15 K, m1 = 4e-05
  electrical conductivity: 0.000511 S/m
303.15 K, m1 = 5e-05
  electrical conductivity: 0.000676 S/m
303.15 K, m1 = 7e-05
  electrical conductivity: 0.000835 S/m
303.15 K, m1 = 8e-05
  electrical conductivity: 0.001 S/m
303.15 K, m1 = 0.00015
  electrical conductivity: 0.00183 S/m
303.15 K, m1 = 0.00023
  electrical conductivity: 0.00267 ± 0.005 S/m
303.15 K, m1 = 0.00038
  electrical conductivity: 0.00443 ± 0.0049 S/m
303.15 K, m1 = 0.00053
  electrical conductivity: 0.00608 ± 0.0049 S/m
303.15 K, m1 = 0.00082
  electrical conductivity: 0.00939 ± 0.0049 S/m
303.15 K, m1 = 0.00142
  electrical conductivity: 0.016 ± 0.0048 S/m
303.15 K, m1 = 0.0023
  electrical conductivity: 0.0256 ± 0.0047 S/m
303.15 K, m1 = 0.00351
  electrical conductivity: 0.0384 ± 0.0047 S/m
303.15 K, m1 = 0.00463
  electrical conductivity: 0.0502 ± 0.0047 S/m
303.15 K, m1 = 0.00617
  electrical conductivity: 0.0665 ± 0.0046 S/m
303.15 K, m1 = 0.00896
  electrical conductivity: 0.0945 ± 0.0045 S/m
303.15 K, m1 = 0.01168
  electrical conductivity: 0.121 ± 0.0045 S/m
303.15 K, m1 = 0.01458
  electrical conductivity: 0.148 ± 0.0045 S/m
303.15 K, m1 = 0.01746
  electrical conductivity: 0.175 ± 0.0045 S/m
303.15 K, m1 = 0.01986
  electrical conductivity: 0.197 ± 0.0046 S/m
303.15 K, m1 = 0.02235
  electrical conductivity: 0.218 ± 0.0047 S/m
303.15 K, m1 = 0.0248
  electrical conductivity: 0.24 ± 0.0048 S/m
303.15 K, m1 = 0.0272
  electrical conductivity: 0.26 ± 0.0049 S/m
303.15 K, m1 = 0.02958
  electrical conductivity: 0.28 ± 0.005 S/m
303.15 K, m1 = 0.03192
  electrical conductivity: 0.299 ± 0.0051 S/m
303.15 K, m1 = 0.03356
  electrical conductivity: 0.312 ± 0.0051 S/m
303.15 K, m1 = 0.0353
  electrical conductivity: 0.326 ± 0.0053 S/m
303.15 K, m1 = 0.03765
  electrical conductivity: 0.345 ± 0.0054 S/m
303.15 K, m1 = 0.03995
  electrical conductivity: 0.361 ± 0.0054 S/m
303.15 K, m1 = 0.04173
  electrical conductivity: 0.373 ± 0.0053 S/m
303.15 K, m1 = 0.0437
  electrical conductivity: 0.385 ± 0.0052 S/m
303.15 K, m1 = 0.04561
  electrical conductivity: 0.393 ± 0.0051 S/m
303.15 K, m1 = 0.0476
  electrical conductivity: 0.401 ± 0.0051 S/m
303.15 K, m1 = 0.04986
  electrical conductivity: 0.409 ± 0.0051 S/m
303.15 K, m1 = 0.05209
  electrical conductivity: 0.416 ± 0.0052 S/m
303.15 K, m1 = 0.05436
  electrical conductivity: 0.423 ± 0.0053 S/m
303.15 K, m1 = 0.05698
  electrical conductivity: 0.43 ± 0.0053 S/m
303.15 K, m1 = 0.0591
  electrical conductivity: 0.436 ± 0.0054 S/m
303.15 K, m1 = 0.06148
  electrical conductivity: 0.443 ± 0.0056 S/m
303.15 K, m1 = 0.0095
  speed of sound: 1510.8 ± 1.2 m/s
303.15 K, m1 = 0.01379
  speed of sound: 1511.6 ± 1.2 m/s
303.15 K, m1 = 0.01652
  speed of sound: 1512 ± 1.2 m/s
303.15 K, m1 = 0.02179
  speed of sound: 1512.8 ± 1.2 m/s
303.15 K, m1 = 0.02615
  speed of sound: 1513.5 ± 1.2 m/s
303.15 K, m1 = 0.03106
  speed of sound: 1514.3 ± 1.2 m/s
303.15 K, m1 = 0.03338
  speed of sound: 1514.7 ± 1.2 m/s
303.15 K, m1 = 0.03819
  speed of sound: 1515.4 ± 1.2 m/s
303.15 K, m1 = 0.0406
  speed of sound: 1515.5 ± 1.2 m/s
303.15 K, m1 = 0.04332
  speed of sound: 1515.8 ± 1.2 m/s
303.15 K, m1 = 0.04614
  speed of sound: 1516 ± 1.2 m/s
303.15 K, m1 = 0.05515
  speed of sound: 1516.2 ± 1.2 m/s
303.15 K, m1 = 0.06396
  speed of sound: 1516.2 ± 1.2 m/s
303.15 K, m1 = 0.07815
  speed of sound: 1516.2 ± 1.2 m/s
303.15 K, m1 = 0.122
  speed of sound: 1516.1 ± 1.2 m/s
303.15 K, m1 = 0.1726
  speed of sound: 1516 ± 1.2 m/s
303.15 K, m1 = 0.2247
  speed of sound: 1516 ± 1.2 m/s
303.15 K, m1 = 0.2539
  speed of sound: 1515.9 ± 1.2 m/s
